What was measured:
[1] = target: T1, B1R receptor of the rat (Rattus norvegicus, UniProt P97583); assay: Functional study on the bradykinin receptor 1 (B1R), FLIPR Ca2+ assay, rB1R cells; type: cell-based; details: agonist Des-Arg9-bradykinin 100 nM, % inhibition compared with the maximum achievable inhibition; for inhibition at 10 µM: CHO-K1, test substance 10 μM, read-out: B1R Antagonism, rat [10 μM] % Inhibition; for B1R Antagonism, rat [10 μM] % Inhibition: test substance 10 μM, rB1R CHO K1 cells
T1 construct: host or cells: CHO K1 cells (Chinese hamster ovary), stably transfected
T1 sequence (P97583 1-337): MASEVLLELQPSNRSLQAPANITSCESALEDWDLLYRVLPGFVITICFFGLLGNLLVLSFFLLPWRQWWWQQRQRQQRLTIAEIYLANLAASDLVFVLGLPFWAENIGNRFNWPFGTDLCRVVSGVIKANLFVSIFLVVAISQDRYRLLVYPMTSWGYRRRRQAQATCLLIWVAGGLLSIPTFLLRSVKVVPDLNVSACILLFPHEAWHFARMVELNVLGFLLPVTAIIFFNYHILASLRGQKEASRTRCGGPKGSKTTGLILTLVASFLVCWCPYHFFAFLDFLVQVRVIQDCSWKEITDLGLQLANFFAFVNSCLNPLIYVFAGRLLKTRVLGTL
Summary of the method: (§1)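 FLIPR Ca2+ read-out (Fluo-4, peak fluorescence) in stably transfected CHO K1 cells. Compounds at 10 μM, then 10 min later agonist challenge: human B1R with Lys-Des-Arg9-bradykinin 0.5 nM, rat B1R with Des-Arg9-bradykinin 100 nM; reported as % activation or % of maximal inhibition.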

[2] = target: T2, human B1R receptor (Homo sapiens, UniProt P46663); assay: Functional study on the bradykinin receptor 1 (B1R), FLIPR Ca2+ assay, hB1R cells; type: cell-based; details: agonist Lys-Des-Arg9-bradykinin 0.5 nM, % inhibition compared with the maximum achievable inhibition; for inhibition at 10 µM: CHO-K1, test substance 10 μM, read-out: B1R Antagonism, human [10 μM] % Inhibition; for B1R Antagonism, human [10 μM] % Inhibition: test substance 10 μM, hB1R CHO K1 cells
T2 construct: host or cells: CHO K1 cells (Chinese hamster ovary), stably transfected
T2 sequence (P46663 1-353): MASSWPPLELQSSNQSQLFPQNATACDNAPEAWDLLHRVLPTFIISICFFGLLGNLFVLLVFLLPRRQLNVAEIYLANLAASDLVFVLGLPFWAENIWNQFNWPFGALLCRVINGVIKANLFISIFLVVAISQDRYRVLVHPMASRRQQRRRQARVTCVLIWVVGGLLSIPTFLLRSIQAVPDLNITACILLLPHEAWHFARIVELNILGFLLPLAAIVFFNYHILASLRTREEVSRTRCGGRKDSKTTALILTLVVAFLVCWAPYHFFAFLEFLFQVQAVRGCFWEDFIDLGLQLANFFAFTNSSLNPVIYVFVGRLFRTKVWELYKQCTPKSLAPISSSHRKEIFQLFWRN
Summary of the method: as §1

Row | Compound | inhibition at 10 µM [1] [%] | inhibition at 10 µM [2] [%] | B1R Antagonism, rat [10 μM] % Inhibition [1] [%] | B1R Antagonism, human [10 μM] % Inhibition [2] [%]
1 | O=C(COCC1CCCN1S(=O)(=O)c1c(Cl)cc(Cl)cc1Cl)N1CCC(N2CCOCC2)CC1 (stereo not drawn) [Example 297, 1-(4-morpholinopiperidin-1-yl)-2-((1-(2,4,6-trichlorophenylsulfonyl)pyrrolidin-2-yl)methoxy)ethanone] | 103 | 106 |  | 
2 | O=C(COCC1CCCN1S(=O)(=O)c1c(Cl)cc(Cl)cc1Cl)N1CCC(N2CCCCC2)CC1 (stereo not drawn) [Example 298, 1-(1,4′-bipiperidin-1-yl)-2-((1-(2,4,6-trichlorophenylsulfonyl)pyrrolidin-2-yl)methoxy)ethanone] |  |  | 103.58 | 105.09
3 | COc1cc(C)c(S(=O)(=O)N2CCCC2COCC(=O)NCc2ccc(CN3CCCC3)cc2)c(C)c1 (stereo not drawn) [Example 299, 2-((1-(4-methoxy-2,6-dimethylphenylsulfonyl)pyrrolidin-2-yl)methoxy)-N-(4-(pyrrolidin-1-ylmethyl)benzyl)acetamide] | 103 | 106 |  | 
4 | COc1cc(C)c(S(=O)(=O)N2CCCC2COCC(=O)NCC2CCCN(Cc3ccccc3)C2)c(C)c1 (stereo not drawn) [Example 300, N-((1-benzylpiperidin-3-yl)methyl)-2-((1-(4-methoxy-2,6-dimethylphenylsulfonyl)pyrrolidin-2-yl)methoxy)acetamide] | 103 | 106 |  | 
5 | COc1cc(C)c(S(=O)(=O)N2CCCC2COCC(=O)Nc2ccc(N3CCN(C)CC3)cc2)c(C)c1 (stereo not drawn) [Example 301, 2-((1-(4-methoxy-2,6-dimethylphenylsulfonyl)pyrrolidin-2-yl)methoxy)-N-(4-(4-methylpiperazin-1-yl)phenyl)acetamide] | 101 | 106 |  | 
6 | COc1cc(C)c(S(=O)(=O)N2CCCC2COCC(=O)NCc2ccc(N3CCN(C)CC3)cc2)c(C)c1 (stereo not drawn) [Example 302, 2-((1-(4-methoxy-2,6-dimethylphenylsulfonyl)pyrrolidin-2-yl)methoxy)-N-(4-(4-methylpiperazin-1-yl)benzyl)acetamide] |  |  | 102.41 | 100.69
7 | COc1cc(C)c(S(=O)(=O)N2CCCC2COCC(=O)N(C)[C@H]2CCN(Cc3ccccc3)C2)c(C)c1 (stereo partly drawn) [Example 303, N—((S)-1-benzylpyrrolidin-3-yl)-2-((1-(4-methoxy-2,6-dimethylphenylsulfonyl)pyrrolidin-2-yl)methoxy)-N-methylacetamide] | 100 | 106 |  | 
8 | COc1cc(C)c(S(=O)(=O)N2CCCC2COCC(=O)N(C)C(CN2CCOCC2)c2ccccc2)c(C)c1 (stereo not drawn) [Example 304, 2-((1-(4-methoxy-2,6-dimethylphenylsulfonyl)pyrrolidin-2-yl)methoxy)-N-methyl-N-(2-morpholino-1-phenylethyl)acetamide] | 102 | 71.1 |  | 
9 | COc1cc(C)c(S(=O)(=O)N2CCCC2COCC(=O)N2CCN(c3ccccn3)CC2)c(C)c1 (stereo not drawn) [Example 305, 2-((1-(4-methoxy-2,6-dimethylphenylsulfonyl)pyrrolidin-2-yl)methoxy)-1-(4-(pyridin-2-yl)piperazin-1-yl)ethanone] | 95.5 | 76.4 |  | 
10 | COc1cccc(N2CCN(C(=O)COCC3CCCN3S(=O)(=O)c3c(C)cc(OC)cc3C)CC2)c1 (stereo not drawn) [Example 306, 2-((1-(4-methoxy-2,6-dimethylphenylsulfonyl)pyrrolidin-2-yl)methoxy)-1-(4-(3-methoxyphenyl)piperazin-1-yl)ethanone] | 99.2 | 104 |  | 
11 | COc1cc(C)c(S(=O)(=O)N2CCCC2COCC(=O)N2CCN(c3ccc(F)cc3)CC2)c(C)c1 (stereo not drawn) [Example 307, 1-(4-(4-fluorophenyl)piperazin-1-yl)-2-((1-(4-methoxy-2,6-dimethylphenylsulfonyl)pyrrolidin-2-yl)methoxy)ethanone] | 98.4 | 105 |  | 
12 | COc1ccc(N2CCN(C(=O)COCC3CCCN3S(=O)(=O)c3c(C)cc(OC)cc3C)CC2)cc1 (stereo not drawn) [Example 308, 2-((1-(4-methoxy-2,6-dimethylphenylsulfonyl)pyrrolidin-2-yl)methoxy)-1-(4-(4-methoxyphenyl)piperazin-1-yl)ethanone] | 101 | 105 |  | 
13 | COc1cc(C)c(S(=O)(=O)N2CCCC2COCC(=O)N2CCN(c3ncccn3)CC2)c(C)c1 (stereo not drawn) [Example 309, 2-((1-(4-methoxy-2,6-dimethylphenylsulfonyl)pyrrolidin-2-yl)methoxy)-1-(4-(pyrimidin-2-yl)piperazin-1-yl)ethanone] | 101 | 52 |  | 
14 | COc1cc(C)c(S(=O)(=O)N2CCCC2COCC(=O)N2CCN(CCc3ccccc3)CC2)c(C)c1 (stereo not drawn) [Example 310, 2-((1-(4-methoxy-2,6-dimethylphenylsulfonyl)pyrrolidin-2-yl)methoxy)-1-(4-phenethylpiperazin-1-yl)ethanone] | 102 | 106 |  | 
15 | COc1cc(C)c(S(=O)(=O)N2CCCC2COCC(=O)N2CCN(c3cc(Cl)ccc3C)CC2)c(C)c1 (stereo not drawn) [Example 311, 1-(4-(5-chloro-2-methylphenyl)piperazin-1-yl)-2-((1-(4-methoxy-2,6-dimethylphenylsulfonyl)pyrrolidin-2-yl)methoxy)ethanone] | 103 | 94.9 |  | 
16 | COc1cc(C)c(S(=O)(=O)N2CCCC2COCC(=O)N2CCN(c3ncccc3C#N)CC2)c(C)c1 (stereo not drawn) [Example 312, 2-(4-(2-((1-(4-methoxy-2,6-dimethylphenylsulfonyl)pyrrolidin-2-yl)methoxy)acetyl)piperazin-1-yl)nicotinonitrile] | 98.7 | 98.5 |  | 
17 | O=C(COCC1CCCCN1S(=O)(=O)c1c(Cl)cccc1Cl)NCc1ccc(CN2CCCC2)cc1 (stereo not drawn) [Example 313, 2-((1-(2,6-dichlorophenylsulfonyl)piperidin-2-yl)methoxy)-N-(4-(pyrrolidin-1-ylmethyl)benzyl)acetamide] | 103 | 103 |  | 
18 | O=C(COCC1CCCCN1S(=O)(=O)c1c(Cl)cccc1Cl)NCC1CCCN(Cc2ccccc2)C1 (stereo not drawn) [Example 314, N-((1-benzylpiperidin-3-yl)methyl)-2-((1-(2,6-dichlorophenylsulfonyl)piperidin-2-yl)methoxy)acetamide] | 104 | 105 |  | 
19 | CN(C(=O)COCC1CCCCN1S(=O)(=O)c1c(Cl)cccc1Cl)[C@H]1CCN(Cc2ccccc2)C1 (stereo partly drawn) [Example 315, N—((S)-1-benzylpyrrolidin-3-yl)-2-((1-(2,6-dichlorophenylsulfonyl)piperidin-2-yl)methoxy)-N-methylacetamide] | 101 | 105 |  | 
20 | O=C(COCC1CCCCN1S(=O)(=O)c1c(Cl)cccc1Cl)N1CCN(c2ccccn2)CC1 (stereo not drawn) [Example 316, 2-((1-(2,6-dichlorophenylsulfonyl)piperidin-2-yl)methoxy)-1-(4-(pyridin-2-yl)piperazin-1-yl)ethanone] | 98.2 | 82.7 |  | 
21 | COc1cccc(N2CCN(C(=O)COCC3CCCCN3S(=O)(=O)c3c(Cl)cccc3Cl)CC2)c1 (stereo not drawn) [Example 317, 2-((1-(2,6-dichlorophenylsulfonyl)piperidin-2-yl)methoxy)-1-(4-(3-methoxyphenyl)piperazin-1-yl)ethanone] | 100 | 92.2 |  | 
22 | O=C(COCC1CCCCN1S(=O)(=O)c1c(Cl)cccc1Cl)N1CCN(c2ccc(F)cc2)CC1 (stereo not drawn) [Example 318, 2-((1-(2,6-dichlorophenylsulfonyl)piperidin-2-yl)methoxy)-1-(4-(4-fluorophenyl)piperazin-1-yl)ethanone] | 102 | 102 |  | 
23 | COc1ccc(N2CCN(C(=O)COCC3CCCCN3S(=O)(=O)c3c(Cl)cccc3Cl)CC2)cc1 (stereo not drawn) [Example 319, 2-((1-(2,6-dichlorophenylsulfonyl)piperidin-2-yl)methoxy)-1-(4-(4-methoxyphenyl)piperazin-1-yl)ethanone] | 100 | 104 |  | 
24 | O=C(COCC1CCCCN1S(=O)(=O)c1c(Cl)cccc1Cl)N1CCN(CCc2ccccc2)CC1 (stereo not drawn) [Example 320, 2-((1-(2,6-dichlorophenylsulfonyl)piperidin-2-yl)methoxy)-1-(4-phenethylpiperazin-1-yl)ethanone] | 102 | 106 |  | 

Source: patent publication US8435978B2, “Substituted sulfonamide compounds” (Gruenenthal GmbH, priority 2006, dated 2013)
